Experimental data taken from the METLIN SMRT retention time set (Domingo-Almenara et al. 2019).

Assay: gradient 5% acetonitrile 3 min, to 50% in 2 min, to 85% in 15 min, held 3 min, 100 µL/min
Details: column: Zorbax Extend-C18 2.1 x 50 mm; eluents: water / acetonitrile, 0.1% formic acid
Procedure, shortened: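 Over 3 months, pure standards in mixtures of ~100 molecules were run by HPLC coupled to a quadrupole time-of-flight mass spectrometer in positive and negative ionization mode. The column was a Zorbax Extend-C18 (2.1 × 50 mm, 1.8 μm) at 100 μL/min, eluted with water and acetonitrile each holding 0.1% formic acid, with 40 μL dead and 900 μL dwell volumes. Retention time was determined from adduct peaks chosen by software and checked manually.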

SMILES | RP-LC retention time
Cn1c(=O)c2c3c(cnc2n(C)c1=O)C(=O)CC(c1cccc(Cl)c1)C3 (configuration not stated) | 1020 s
CCN1C(=O)COc2ccc(-c3csc(NC(=O)c4ccc(OC)c(OC)c4)n3)cc21 | 943 s
O=C1CC(c2noc(-c3ccc(F)c(Cl)c3)n2)CN1c1ccc(F)cc1 (configuration not stated) | 1070 s
Cc1nc(-n2nc(C)c(Cl)c2C)sc1C(=O)N1CCOCC1 | 953 s
Cc1nc(-c2cccc(NC(=O)CCCn3cnc(-c4ccc(F)cc4)cc3=O)c2)cs1 | 768 s
COC(=O)c1ccc(NC(=O)N2CCC(n3cnc4ccc(Cl)cc4c3=O)CC2)cc1 | 830 s
Cc1noc(-c2cccn2Cc2c(F)cccc2Cl)n1 | 1130 s
O=C(NCCc1csc(-c2ccc(F)cc2)n1)Oc1ccccc1 | 944 s
COc1ccc(NC(=O)C2CCCN(c3nccnc3Sc3ccccc3)C2)c(OC)c1 (configuration not stated) | 1060 s
Cc1ccc(Cl)c(NC(=O)C2CCc3nc(N4CCOCC4)ncc3C2)c1 (configuration not stated) | 865 s
O=C(CN1C(=O)CC(c2ccccc2)=Nc2ccccc21)NCc1ccccc1 | 919 s
CC(C)(C)C(=O)N1CCC(C(=O)Nc2cccc(Br)c2)CC1 | 855 s
O=C(Cc1ccsc1)N1CCCC1c1nc(-c2ccc(F)cc2F)no1 (configuration not stated) | 922 s
O=C(NCCc1c[nH]c2ccccc12)C1CC(=O)N(c2n[nH]c3cccc(F)c23)C1 (configuration not stated) | 710 s
Cc1nc2c(ccc3nc(NC(=O)c4ccc(N5C(=O)CCC5=O)cc4)sc32)s1 | 717 s
O=S(=O)(c1ccc2nncn2c1)N(Cc1cc(F)cc(F)c1)c1ccccc1 | 861 s
COC(=O)c1ccccc1NC(=O)CSc1nc2ccccc2s1 | 1030 s
Cc1ccc(Cl)cc1NC(=O)C(=O)c1cccn1C | 878 s
O=C(O)c1cc2c([nH]c1=O)CCCC2O (configuration not stated) | 516 s
Cc1nc2cc3c(cc2n1CC(=O)Nc1ccc2c(c1)OCCCO2)OCCO3 | 618 s
COc1ccc(NC(=O)CN2CCc3[nH]c4ccc(OC)cc4c(=O)c3C2)c(OC)c1 | 609 s
COc1ccc(CNC(=O)CN2C(=O)NC(c3ccc(Cl)cc3)C3=C2COC3=O)cc1 (configuration not stated) | 780 s
COC(=O)c1cnc2nc(C)ccc2c1Nc1ccc(OC)cc1 | 647 s
COc1ccc(OC)c(NC(=O)CSc2cc(N3CCN(c4ccccc4OC)CC3)ncn2)c1 | 791 s
CCn1cc(-c2nc(C(=O)Nc3cc(OC)cc(OC)c3)cs2)c2cccnc21 | 1030 s
CCCNC(=O)N(C1CCOCC1)C1CCN(C(=O)c2cnccn2)CC1 | 611 s

SMILES | RP-LC retention time
COc1ccc(CN2CCc3nc(N4CCN(c5ncccn5)CC4)ncc3C2)cc1 | 584 s
Cc1ccn2cc(-c3ccc(C)c(NS(=O)(=O)c4cc(C)c(C)cc4C)c3)nc2c1 | 759 s
COc1ccccc1CNC(=O)c1cn2cc(C)ccc2n1 | 681 s
COc1ccc(-c2nnc(-c3cccnc3NCc3ccc(N(C)C)cc3)o2)cc1 | 873 s
Cc1cc(N2CCC(NC(=O)Nc3cc(F)cc(F)c3)C2=O)ccc1F (configuration not stated) | 931 s
CCCn1c(CCC(=O)Nc2ccc3c(c2)OCCO3)nc2cccnc21 | 662 s
Cc1sc(C)c(S(=O)(=O)N2CCN(c3ccccc3F)CC2)c1-c1cc(C(F)(F)F)on1 | 1330 s
CCN(C(=O)c1ccc(OC)c(OC)c1)c1nc(-c2ccc(C)cc2)cs1 | 1200 s
COc1ccc(N2CCN(c3cc(SCC(=O)Nc4ccc(OC)cc4OC)ncn3)CC2)cc1 | 962 s
CCn1cc(S(=O)(=O)NCc2cc(F)cc(F)c2)c2cccnc21 | 828 s
O=C(NC1CCCC1)NC1CCN(c2nc3cccnc3n(Cc3ccccc3)c2=O)CC1 | 990 s
CCn1c(=O)c(N2CCC(NC(=O)NCCc3ccccc3)CC2)nc2ccccc21 | 882 s
COc1cccc(NC(=O)CN2CCc3c(c(=O)c4cc(C)ccc4n3C)C2)c1 | 609 s
COc1ccc(NS(=O)(=O)c2cc(-c3nc(C(C)(C)C)cs3)cs2)cc1Cl | 1220 s
COc1ccc2cc(C(=O)N3CCC(CC(=O)NCCc4c[nH]c5ccc(C)cc45)CC3)[nH]c2c1 | 817 s
COc1ccccc1CCc1nc(C2CC(=O)N(c3ccc(F)c(Cl)c3)C2)no1 (configuration not stated) | 1110 s
CC(NC(=O)CCc1ccccc1)C(=O)Nc1nc2ccccc2[nH]1 (configuration not stated) | 654 s
COc1ccc(C(=O)c2cnc3cc4c(cc3c2N2CCN(C)CC2)OCCO4)cc1 | 560 s
COc1ccc(CNC(=O)N2CCC3(C2)C(=O)N(C)c2ccc(OC)cc23)cc1 (configuration not stated) | 747 s
COc1ccccc1NC(=O)c1ccc(Br)cc1F | 1070 s
CCOc1ccc(/C=C2\NC(=S)NC2=O)cc1 | 840 s
Cc1cc(NC(=O)c2ccccc2Br)nc2c1c(=O)oc1ccccc12 | 1010 s
O=c1ccc(-c2ccccc2F)nn1Cc1nc(-c2ccccc2Cl)no1 | 1020 s
Cc1ccc(Sc2ccc(N3CCC(C(=O)N4CCN(c5ncccn5)CC4)CC3)nn2)cc1 | 741 s
O=C(Nc1nccs1)C1CCN(C(=O)C2COc3ccccc3O2)CC1 (configuration not stated) | 716 s
COc1ccc(NC(=O)Cn2c(=O)n(-c3ccc(F)cc3)c(=O)c3c2cc(C)n3C)cc1Cl | 873 s

Next, values leading:

RP-LC retention time | SMILES
592 s | Cn1ncc2c3ccccc3n(CC(=O)NCCN3CCOCC3)c2c1=O
1010 s | CCC(c1cccs1)N1C(=O)[C@H]2CN(S(=O)(=O)c3cccc(OC)c3)C[C@H]2C1=O (some centres not stated)
764 s | O=C(Cn1cnc2c(nc3n2CCCCC3)c1=O)N1CCC(Cc2ccccc2)CC1
826 s | Cc1cc(-c2nnc(-c3ccccc3)o2)c(C)n1CC(=O)NCc1ccco1
660 s | Cc1ccc(-c2nnc(N3CCC(C(=O)NCCCN4CCCC4=O)CC3)o2)cc1
624 s | Cc1ccnc(N2CCC(C(=O)NCc3ccco3)CC2)n1
776 s | COCCN1CC2(CCN(S(=O)(=O)c3ccc(C(C)C)cc3)CC2)C1c1ccccc1 (configuration not stated)
870 s | COc1ccc(-c2nnc(-c3ccccc3)o2)cc1S(=O)(=O)NC(C)C
966 s | COc1ccc(-c2cc(N3CCC(NC(=O)c4ccc(Br)cc4)C3)n[nH]2)cc1 (configuration not stated)
1050 s | COc1cccc(Oc2nccnc2N2CCC(C(=O)NCCC3=CCCCC3)CC2)c1
706 s | COc1ccc(N2CCN(C(=O)C3CCN(S(=O)(=O)c4cn(C(C)C)cn4)CC3)CC2)cc1
526 s | COCCN1CCC(N2CCCN(C(=O)NCCc3ccccc3)CC2)C1=O (configuration not stated)
944 s | Cc1ccc(-n2nnnc2CNC(=O)Nc2ccc(Cl)c(Cl)c2)cc1C
941 s | Cc1ccc(NC(=O)NCCc2cn(CC(C)C)c3ncccc23)cc1Cl
1030 s | CC(C)CCNC(=O)c1nnc(-c2ccc(S(=O)(=O)N3CCCCC3)cc2)o1
749 s | CCC(C)NC(=O)c1ccc2c(c1)Sc1ncccc1C(=O)N2CC (configuration not stated)
885 s | O=C(NC1(c2nc(-c3ccncc3)no2)CCCCC1)c1ccccn1
634 s | CCN(CC)CCNC(=O)c1ccc(CS(=O)(=O)c2ccc(Br)cc2)o1

RP-LC retention time | SMILES
1160 s | Cc1cc(NS(=O)(=O)c2ccc(Nc3nc(-c4ccc(C(C)C)cc4)cs3)cc2)no1
692 s | CC1=C(c2ccc(C)c(C)c2)S(=O)(=O)N=C1N1CCCN(C(=O)c2ccncc2)CC1
556 s | CCn1cnc(S(=O)(=O)N2CCC(C(=O)N3CCN(c4ccccn4)CC3)CC2)c1
816 s | COc1ccc(OC)c(S(=O)(=O)N2CC(c3nc(-c4ccsc4)nn3C)C2)c1
889 s | Cc1ccc(C)c(N2C(=O)CN(S(C)(=O)=O)CC2(C)C(=O)NCc2ccc(Cl)cc2)c1 (configuration not stated)
901 s | Cc1ccc(C(=O)N2CCC3(CC2)N=C(c2ccc(Cl)cc2)NO3)s1
1080 s | COc1ccc(-c2cc3n(n2)CCCN(S(=O)(=O)c2ccc4c(c2)CCC4)C3)cc1
726 s | Cc1ccc(CNC(=O)C2CCCN(c3nnc(C)c4c(C)n(-c5ccccc5)nc34)C2)cc1 (configuration not stated)
944 s | CC(C)c1ccc(NC(=O)c2cn(C)nc2S(=O)(=O)N2CCSCC2)cc1
834 s | CCOc1ccc(S(=O)(=O)NC2CCN(c3ccc(=O)n(CC4CC4)n3)C2)cc1 (configuration not stated)
967 s | O=C(Nc1cnc(N2CCCCCC2)nc1)c1cc(F)ccc1F
860 s | Cc1ccc(S(=O)(=O)N2CCc3nc(NC(=O)c4ccnn4C)sc3C2)cc1
1150 s | CCOc1ccc(Cl)cc1S(=O)(=O)N1CCC(C(=O)Nc2ccc3c(c2)OCCO3)CC1
837 s | O=C(Nc1ccc(Cl)cc1)c1csc(-c2ccc(N3CCCC3)nc2)n1
1020 s | COC(=O)C1=C(C)NC(SCC(=O)NC2CCCCC2)=C(C#N)C1c1ccccc1F (configuration not stated)
881 s | O=C(c1nnc(-c2csc(S(=O)(=O)N3CCN(c4ncccn4)CC3)c2)o1)N1CCCCC1
627 s | Cc1n[nH]c(C)c1CNC(=O)C1CCN(C(=O)c2ncn3c2COC(c2ccc(F)cc2)C3)CC1 (configuration not stated)
